# Reference: ChEMBL document CHEMBL1201862, “PubChem BioAssay data set” (2004)
# Active and inactive are the calls of the source.
# Key:
# Hexokinase = Hexokinase (Trypanosoma brucei, UniProt Q38C41); assay: Confirmation assay for inhibitors of Trypanosoma brucei hexokinase 1-Analogue-first series. [Related pubchem assays (depositor defined):AID1430, AID1632, AID2516, AID2560, AID2579, AID2600, AID449725, AID492951]; format: functional
# Estrogen receptor = target: T1, Estrogen receptor (Homo sapiens, UniProt P03372);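 further: potency for inhibiting coactivator peptide recruitment to the receptor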
# T1 sequence (P03372 whole entry): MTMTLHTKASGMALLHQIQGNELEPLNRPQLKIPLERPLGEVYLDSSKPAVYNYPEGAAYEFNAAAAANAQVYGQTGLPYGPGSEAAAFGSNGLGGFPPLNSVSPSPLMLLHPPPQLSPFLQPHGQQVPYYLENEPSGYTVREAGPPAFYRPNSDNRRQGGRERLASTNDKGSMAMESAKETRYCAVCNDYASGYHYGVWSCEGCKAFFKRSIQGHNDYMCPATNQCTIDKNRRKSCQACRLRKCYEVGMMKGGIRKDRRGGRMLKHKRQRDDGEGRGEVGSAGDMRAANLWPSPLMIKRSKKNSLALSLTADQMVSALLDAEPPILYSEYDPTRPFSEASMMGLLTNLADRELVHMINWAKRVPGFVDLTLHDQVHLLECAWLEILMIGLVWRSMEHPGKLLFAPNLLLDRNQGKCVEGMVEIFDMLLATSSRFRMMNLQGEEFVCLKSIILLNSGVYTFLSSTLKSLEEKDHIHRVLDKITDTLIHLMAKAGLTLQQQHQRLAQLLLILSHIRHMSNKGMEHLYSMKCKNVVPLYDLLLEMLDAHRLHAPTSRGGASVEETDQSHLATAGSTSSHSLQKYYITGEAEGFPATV
# Estrogen receptor beta [1] = target: T2, Estrogen receptor beta (Homo sapiens, UniProt Q92731);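 further: recombinant ER-beta bound to coactivator SRC1 peptide in presence of estradiol agonist; inhibitors block coactivator peptide binding and lower the FRET signal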
# Estrogen receptor beta [2] = target: T2, Estrogen receptor beta; assay: blockers of SRC-3 recruitment to ERβ – biochemical, ELISA, streptavidin-HRP readout, orthogonal assay, confirmation (AID 1060)
# [3] = target: Induced myeloid leukemia cell differentiation protein Mcl-1 (Homo sapiens, UniProt Q07820); format: functional
# [4] = target: Eukaryotic translation initiation factor 4H (Homo sapiens, UniProt Q15056); assay: inhibitors of translation initiation factor eIF4H – SAR follow-up (AID 435011); format: functional
# [5] = target: Polyadenylate-binding protein 1 (Homo sapiens, UniProt P11940); assay: PABP inhibition in translation initiation, SAR follow-up (AID 435018); format: functional
# [6] = target: T3, Carboxy-terminal domain RNA polymerase II polypeptide A small phosphatase 1 (Homo sapiens, UniProt Q9GZU7); assay: CTDSP1 inhibitors, concentration-response, biochemical, absorbance readout, ultra-high-throughput screen actives (AID 540297); format: functional
# T3 sequence (Q9GZU7 whole entry): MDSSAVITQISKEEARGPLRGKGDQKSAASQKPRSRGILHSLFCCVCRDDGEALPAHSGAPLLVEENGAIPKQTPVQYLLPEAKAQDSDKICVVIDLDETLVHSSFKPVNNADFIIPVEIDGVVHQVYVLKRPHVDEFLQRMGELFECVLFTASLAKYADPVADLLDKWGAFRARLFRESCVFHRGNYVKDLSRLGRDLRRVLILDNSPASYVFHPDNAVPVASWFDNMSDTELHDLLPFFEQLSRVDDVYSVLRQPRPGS
# [7] = target: DNA (cytosine-5)-methyltransferase 1 (Homo sapiens, UniProt P26358); assay: inhibition of DNA methylation by DNMT1 – biochemical, fluorescent molecular beacon, confirmation (AID 602386); format: functional
# Beta-galactosidase = Beta-galactosidase (Escherichia coli, UniProt Q8VNN2); assay: detection-enzyme interference by beta-gal modulators – biochemical, E. coli enzyme, set 3, artefact control for CCR6 antagonist project, dose response (AID 504712); format: functional
# Hexokinase HKDC1 = target: T4, Hexokinase HKDC1 (Homo sapiens, UniProt Q2TB90); assay: inhibition of HKDC1 glucose phosphorylation – biochemical, W721R variant, dose response (AID 504729); format: functional
# T4 sequence (Q2TB90 whole entry): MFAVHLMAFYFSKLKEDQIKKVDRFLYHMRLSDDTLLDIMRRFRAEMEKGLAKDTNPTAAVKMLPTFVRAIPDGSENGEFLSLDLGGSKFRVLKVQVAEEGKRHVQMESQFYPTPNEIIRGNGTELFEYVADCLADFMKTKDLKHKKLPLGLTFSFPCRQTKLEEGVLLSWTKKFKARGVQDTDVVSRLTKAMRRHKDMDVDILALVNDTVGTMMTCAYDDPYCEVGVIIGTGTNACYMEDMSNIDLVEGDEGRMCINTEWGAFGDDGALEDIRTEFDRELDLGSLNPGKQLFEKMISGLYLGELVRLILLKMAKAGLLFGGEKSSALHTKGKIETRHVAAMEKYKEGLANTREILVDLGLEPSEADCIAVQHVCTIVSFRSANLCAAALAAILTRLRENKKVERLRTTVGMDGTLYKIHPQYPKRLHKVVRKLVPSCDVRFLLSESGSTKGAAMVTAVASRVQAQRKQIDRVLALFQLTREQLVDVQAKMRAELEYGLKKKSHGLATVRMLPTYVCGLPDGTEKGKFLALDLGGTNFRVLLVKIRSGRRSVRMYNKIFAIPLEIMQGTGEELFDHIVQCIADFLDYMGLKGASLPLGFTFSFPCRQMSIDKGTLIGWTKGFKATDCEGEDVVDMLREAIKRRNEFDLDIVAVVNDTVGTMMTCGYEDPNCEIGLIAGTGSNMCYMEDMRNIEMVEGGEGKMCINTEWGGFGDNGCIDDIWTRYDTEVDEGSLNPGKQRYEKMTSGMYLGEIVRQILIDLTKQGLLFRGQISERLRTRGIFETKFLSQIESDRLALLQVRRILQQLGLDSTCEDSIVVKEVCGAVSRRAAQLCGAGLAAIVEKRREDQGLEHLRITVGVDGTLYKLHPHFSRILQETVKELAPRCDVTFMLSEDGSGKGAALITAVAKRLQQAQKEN
# [8] = target: T5, Lysine-specific demethylase 4C (Homo sapiens, UniProt Q9H3R0); assay: inhibition of JMJD2C H3K9me3 demethylation – biochemical, DELFIA europium, cherry-picked samples, dose response (AID 488835); format: functional
# T5 sequence (Q9H3R0 whole entry): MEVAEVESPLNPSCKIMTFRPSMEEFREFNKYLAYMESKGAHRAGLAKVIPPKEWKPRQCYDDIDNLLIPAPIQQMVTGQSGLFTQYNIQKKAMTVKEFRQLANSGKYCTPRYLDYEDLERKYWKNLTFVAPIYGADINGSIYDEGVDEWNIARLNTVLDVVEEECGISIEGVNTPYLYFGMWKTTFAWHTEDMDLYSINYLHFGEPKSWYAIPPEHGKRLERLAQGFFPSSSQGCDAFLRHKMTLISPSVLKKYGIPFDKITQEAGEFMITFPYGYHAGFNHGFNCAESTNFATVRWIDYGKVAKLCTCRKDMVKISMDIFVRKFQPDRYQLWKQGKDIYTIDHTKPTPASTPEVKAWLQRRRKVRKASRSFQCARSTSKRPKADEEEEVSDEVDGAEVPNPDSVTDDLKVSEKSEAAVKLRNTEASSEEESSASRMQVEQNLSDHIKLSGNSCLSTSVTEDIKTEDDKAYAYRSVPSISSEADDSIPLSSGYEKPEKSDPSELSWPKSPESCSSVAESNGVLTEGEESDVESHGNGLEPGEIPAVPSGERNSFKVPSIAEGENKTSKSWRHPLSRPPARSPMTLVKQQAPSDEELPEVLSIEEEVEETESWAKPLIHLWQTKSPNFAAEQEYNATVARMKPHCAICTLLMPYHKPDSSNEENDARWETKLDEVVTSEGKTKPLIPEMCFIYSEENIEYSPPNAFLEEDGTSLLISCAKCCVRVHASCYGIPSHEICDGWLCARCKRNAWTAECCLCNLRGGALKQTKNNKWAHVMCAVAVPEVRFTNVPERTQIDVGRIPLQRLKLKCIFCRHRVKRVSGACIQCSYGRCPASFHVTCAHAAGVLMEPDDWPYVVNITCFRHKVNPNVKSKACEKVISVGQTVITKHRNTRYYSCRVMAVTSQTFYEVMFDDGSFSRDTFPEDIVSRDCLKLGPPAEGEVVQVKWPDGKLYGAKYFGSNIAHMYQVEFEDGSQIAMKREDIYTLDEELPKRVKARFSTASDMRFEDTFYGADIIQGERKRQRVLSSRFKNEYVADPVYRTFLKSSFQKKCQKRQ
# Vero = assay: viability of Vero cells under compound – cytotoxicity control for flavivirus capping enzyme inhibitors (AID 588742); format: functional; conditions: Chlorocebus sabaeus
# Genome polyprotein = Genome polyprotein (dengue virus type 2, UniProt P29990); assay: flavivirus cap methylation enzyme inhibition – biochemical, confirmation dose response, primary screen (AID 588689); format: functional
# [9] = target: DNA dC->dU-editing enzyme APOBEC-3A (Homo sapiens, UniProt P31941); assay: A3A deaminase inhibition for selectivity – biochemical, dose response (AID 504722); format: functional
# [10] = target: DNA dC->dU-editing enzyme APOBEC-3G (Homo sapiens, UniProt Q9HC16); assay: Dose Response confirmation of small molecule APOBEC3G DNA Deaminase Inhibitors via a fluorescence-based single-stranded DNA deaminase assay. [Related pubchem assays (depositor defined):AID493012, AID493028]; format: functional
# [11] = target: FAD-linked sulfhydryl oxidase ALR (Homo sapiens, UniProt P55789); assay: ALR-catalysed DTT oxidation blockers – biochemical, H2O2 detection, luminescence, cherry-pick, dose response (AID 493248)
# [12] = target: T6, Voltage-gated N-type calcium channel alpha-1B subunit/Amyloid beta A4 precursor protein-binding family A member 1 (Homo sapiens, UniProt Q00975+Q02410); format: protein assay
# NS3 = NS3 (Hepatitis C virus, UniProt A3EZJ3); assay: PubChem AID 2173; parameters: species or system Hepacivirus hominis
# [13] = target: T6, Voltage-gated N-type calcium channel alpha-1B subunit/Amyloid beta A4 precursor protein-binding family A member 1; format: protein assay; remark: listed apart in the source
# [14] = target: G-protein coupled receptor 55 (Homo sapiens, UniProt Q9Y2T6); assay: inhibition of LPI-stimulated GPR55 beta-arrestin translocation – imaging, U2OS, beta-arrestin-GFP, LPI agonist, primary screen (AID 2013); format: functional;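 further: antagonist potency measured as reduced agonist-driven arrestin aggregation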
# [15] = microbe, parasite or virus in culture; format: functional; conditions: Mycobacterium tuberculosis
# Melanocortin receptor 4 = Melanocortin receptor 4 (Homo sapiens, UniProt P32245); format: functional, cell-based;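 further: Cell-based assay with luminescence read-out, confirmatory dose-response testing for agonist activity of biased ligands at MC4R; human U2OS cells with tagged receptor and beta-arrestin; potency of agonists that increase receptor coupling to beta-arrestin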
# [16] = blockers of HIV-1 envelope-mediated cell-cell fusion – cherry-pick, dose response (AID 652057); format: functional, cell-based
# [17] = blockers of HIV-1 ZM109 envelope-driven cell-cell fusion – HeLa effector, CEM target cells, luciferase, cherry-pick, dose response (AID 652058); format: functional, cell-based;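 further: luciferase signal from HIV-1 Env mediated cell-cell fusion of effector and target cells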
# [18] = off-target signal loss in HeLa-CEM21 co-culture – HeLa F-luc CTL cells, cherry-picked, counter-screen for HIV-1 Env fusion inhibitor project, dose response (AID 652040); format: functional, cell-based;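 further: potency for signal decrease marking cytotoxic or nonspecific inhibition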
# [19] = target: T7, Mannose-6-phosphate isomerase (Homo sapiens, UniProt P34949); assay: MPI enzyme activity inhibition – biochemical, fluorescence intensity, coupled assay, primary screen (AID 1209)
# T7 sequence (P34949 whole entry): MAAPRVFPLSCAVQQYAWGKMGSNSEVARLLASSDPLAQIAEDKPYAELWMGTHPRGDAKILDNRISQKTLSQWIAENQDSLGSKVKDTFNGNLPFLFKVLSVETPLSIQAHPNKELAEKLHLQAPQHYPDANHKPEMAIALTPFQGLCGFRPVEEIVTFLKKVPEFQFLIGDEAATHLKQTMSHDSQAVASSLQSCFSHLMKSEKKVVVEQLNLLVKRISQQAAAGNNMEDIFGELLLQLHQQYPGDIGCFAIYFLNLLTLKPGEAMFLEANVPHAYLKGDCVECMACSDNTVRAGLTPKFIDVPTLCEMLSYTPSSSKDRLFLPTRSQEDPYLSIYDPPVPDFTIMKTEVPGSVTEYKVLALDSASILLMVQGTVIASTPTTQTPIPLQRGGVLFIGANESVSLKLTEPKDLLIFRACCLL
# [20] = target: T7, Mannose-6-phosphate isomerase; assay: MPI inhibition at elevated mannose 6-phosphate – biochemical, fluorescence intensity, high mannose 6-phosphate, primary screen (AID 1220)
# T6 sequence (Q00975 whole entry): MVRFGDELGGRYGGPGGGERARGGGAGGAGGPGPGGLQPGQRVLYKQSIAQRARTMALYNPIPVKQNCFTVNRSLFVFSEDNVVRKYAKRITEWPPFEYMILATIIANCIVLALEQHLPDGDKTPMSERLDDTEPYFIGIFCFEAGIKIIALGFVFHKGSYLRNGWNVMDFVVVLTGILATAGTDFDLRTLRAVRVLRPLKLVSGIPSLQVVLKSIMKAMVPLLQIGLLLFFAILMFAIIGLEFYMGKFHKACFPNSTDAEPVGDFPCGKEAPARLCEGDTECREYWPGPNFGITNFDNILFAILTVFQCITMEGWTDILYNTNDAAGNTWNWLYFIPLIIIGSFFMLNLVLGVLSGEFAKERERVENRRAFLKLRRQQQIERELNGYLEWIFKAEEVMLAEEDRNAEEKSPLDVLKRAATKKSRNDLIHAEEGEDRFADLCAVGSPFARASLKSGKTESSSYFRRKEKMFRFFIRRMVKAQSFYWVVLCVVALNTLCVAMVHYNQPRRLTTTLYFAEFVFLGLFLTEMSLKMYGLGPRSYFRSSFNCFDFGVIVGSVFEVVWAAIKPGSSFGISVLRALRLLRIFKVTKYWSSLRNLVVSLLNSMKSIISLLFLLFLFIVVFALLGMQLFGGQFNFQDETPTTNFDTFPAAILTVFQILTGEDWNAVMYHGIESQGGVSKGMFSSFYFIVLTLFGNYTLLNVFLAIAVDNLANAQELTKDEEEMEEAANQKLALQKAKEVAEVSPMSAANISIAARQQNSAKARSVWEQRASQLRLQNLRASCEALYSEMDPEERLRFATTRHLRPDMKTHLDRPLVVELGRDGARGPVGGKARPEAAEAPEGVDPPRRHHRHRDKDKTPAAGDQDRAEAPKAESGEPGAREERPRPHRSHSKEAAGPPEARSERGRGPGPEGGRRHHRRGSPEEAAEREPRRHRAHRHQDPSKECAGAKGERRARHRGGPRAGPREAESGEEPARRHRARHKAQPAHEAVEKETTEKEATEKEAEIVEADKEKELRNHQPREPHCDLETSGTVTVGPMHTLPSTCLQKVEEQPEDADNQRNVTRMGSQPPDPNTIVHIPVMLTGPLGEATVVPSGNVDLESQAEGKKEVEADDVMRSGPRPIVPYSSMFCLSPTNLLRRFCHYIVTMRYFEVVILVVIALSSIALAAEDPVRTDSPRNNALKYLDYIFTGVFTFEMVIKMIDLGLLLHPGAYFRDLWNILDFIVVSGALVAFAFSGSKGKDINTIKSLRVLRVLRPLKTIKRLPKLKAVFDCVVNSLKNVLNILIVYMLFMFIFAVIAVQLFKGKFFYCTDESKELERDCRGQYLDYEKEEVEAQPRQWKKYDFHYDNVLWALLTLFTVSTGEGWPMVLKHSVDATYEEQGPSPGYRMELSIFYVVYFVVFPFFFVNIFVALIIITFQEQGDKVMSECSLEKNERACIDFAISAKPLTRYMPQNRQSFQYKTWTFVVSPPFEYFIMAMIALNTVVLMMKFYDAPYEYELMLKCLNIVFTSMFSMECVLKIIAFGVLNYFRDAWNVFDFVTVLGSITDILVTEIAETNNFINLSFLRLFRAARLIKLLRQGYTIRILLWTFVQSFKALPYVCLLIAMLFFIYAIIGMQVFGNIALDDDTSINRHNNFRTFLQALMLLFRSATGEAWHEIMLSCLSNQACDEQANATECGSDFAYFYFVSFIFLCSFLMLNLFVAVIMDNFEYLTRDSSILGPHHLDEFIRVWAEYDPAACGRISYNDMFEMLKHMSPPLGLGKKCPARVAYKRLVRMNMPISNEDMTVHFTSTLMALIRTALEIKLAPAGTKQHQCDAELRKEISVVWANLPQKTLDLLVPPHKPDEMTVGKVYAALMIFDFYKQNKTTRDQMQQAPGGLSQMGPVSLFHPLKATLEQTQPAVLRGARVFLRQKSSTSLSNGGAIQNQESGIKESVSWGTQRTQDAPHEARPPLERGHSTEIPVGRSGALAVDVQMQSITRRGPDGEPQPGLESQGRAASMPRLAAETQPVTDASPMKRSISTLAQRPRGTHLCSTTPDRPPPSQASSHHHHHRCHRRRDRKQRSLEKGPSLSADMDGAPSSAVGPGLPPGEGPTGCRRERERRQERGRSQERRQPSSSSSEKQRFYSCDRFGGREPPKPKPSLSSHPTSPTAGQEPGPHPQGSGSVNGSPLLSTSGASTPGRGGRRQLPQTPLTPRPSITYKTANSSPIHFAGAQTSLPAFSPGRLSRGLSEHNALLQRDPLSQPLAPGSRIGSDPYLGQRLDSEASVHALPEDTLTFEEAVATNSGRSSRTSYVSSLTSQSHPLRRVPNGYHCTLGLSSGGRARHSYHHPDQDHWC
# T6 sequence (Q02410 whole entry): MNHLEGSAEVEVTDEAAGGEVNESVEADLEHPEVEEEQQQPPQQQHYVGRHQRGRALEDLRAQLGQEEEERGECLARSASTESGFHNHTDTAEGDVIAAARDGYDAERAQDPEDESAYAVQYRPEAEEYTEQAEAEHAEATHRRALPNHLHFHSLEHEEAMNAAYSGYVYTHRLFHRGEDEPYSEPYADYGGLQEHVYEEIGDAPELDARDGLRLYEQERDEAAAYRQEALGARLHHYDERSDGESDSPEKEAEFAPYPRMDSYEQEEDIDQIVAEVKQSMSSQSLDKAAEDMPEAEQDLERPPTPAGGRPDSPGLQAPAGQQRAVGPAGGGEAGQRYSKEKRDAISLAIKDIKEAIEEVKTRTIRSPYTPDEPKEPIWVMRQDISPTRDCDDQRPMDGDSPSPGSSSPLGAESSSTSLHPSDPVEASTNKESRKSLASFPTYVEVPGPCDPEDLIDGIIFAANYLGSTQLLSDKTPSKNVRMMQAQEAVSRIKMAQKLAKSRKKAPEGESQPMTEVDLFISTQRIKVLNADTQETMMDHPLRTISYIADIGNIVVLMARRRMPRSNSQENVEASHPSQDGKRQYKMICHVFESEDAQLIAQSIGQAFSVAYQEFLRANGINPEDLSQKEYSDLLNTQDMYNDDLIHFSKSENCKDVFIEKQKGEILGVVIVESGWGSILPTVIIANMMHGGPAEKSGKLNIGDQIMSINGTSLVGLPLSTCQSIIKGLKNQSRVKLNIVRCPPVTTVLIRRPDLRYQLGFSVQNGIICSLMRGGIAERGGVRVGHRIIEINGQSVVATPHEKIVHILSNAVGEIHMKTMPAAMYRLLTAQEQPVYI
# T2 sequence (Q92731 whole entry): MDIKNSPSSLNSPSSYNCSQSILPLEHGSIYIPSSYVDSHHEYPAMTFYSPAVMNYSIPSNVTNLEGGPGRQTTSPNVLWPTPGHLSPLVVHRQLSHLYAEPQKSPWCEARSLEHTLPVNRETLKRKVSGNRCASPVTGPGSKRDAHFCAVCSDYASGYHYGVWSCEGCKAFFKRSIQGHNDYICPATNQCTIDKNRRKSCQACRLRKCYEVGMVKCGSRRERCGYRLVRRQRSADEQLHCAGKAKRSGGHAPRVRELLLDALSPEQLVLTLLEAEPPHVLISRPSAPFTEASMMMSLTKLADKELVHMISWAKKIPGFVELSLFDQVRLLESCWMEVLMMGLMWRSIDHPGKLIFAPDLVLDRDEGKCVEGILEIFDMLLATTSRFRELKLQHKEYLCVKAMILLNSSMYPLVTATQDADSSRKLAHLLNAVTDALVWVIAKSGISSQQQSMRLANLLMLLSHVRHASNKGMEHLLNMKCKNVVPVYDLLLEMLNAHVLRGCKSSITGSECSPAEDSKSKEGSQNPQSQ
# DNA dC->dU-editing enzyme APOBEC-3A, sequence (P31941 whole entry): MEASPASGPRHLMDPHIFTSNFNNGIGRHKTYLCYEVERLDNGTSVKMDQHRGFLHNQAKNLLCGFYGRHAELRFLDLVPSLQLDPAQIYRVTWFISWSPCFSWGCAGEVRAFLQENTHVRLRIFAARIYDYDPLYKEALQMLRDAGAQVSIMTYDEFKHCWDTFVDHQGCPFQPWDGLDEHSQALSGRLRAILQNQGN
# DNA dC->dU-editing enzyme APOBEC-3G, sequence (Q9HC16 whole entry): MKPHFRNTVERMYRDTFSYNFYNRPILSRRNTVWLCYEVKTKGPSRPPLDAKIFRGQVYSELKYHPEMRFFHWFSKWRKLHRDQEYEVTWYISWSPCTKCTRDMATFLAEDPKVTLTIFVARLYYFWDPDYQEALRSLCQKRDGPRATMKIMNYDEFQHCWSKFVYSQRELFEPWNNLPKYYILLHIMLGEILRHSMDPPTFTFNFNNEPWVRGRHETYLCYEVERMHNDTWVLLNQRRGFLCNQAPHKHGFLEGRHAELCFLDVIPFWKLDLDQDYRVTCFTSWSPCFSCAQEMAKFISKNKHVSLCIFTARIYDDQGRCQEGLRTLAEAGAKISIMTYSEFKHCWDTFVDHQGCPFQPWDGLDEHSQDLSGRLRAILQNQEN
# Hexokinase, sequence (Q38C41 whole entry): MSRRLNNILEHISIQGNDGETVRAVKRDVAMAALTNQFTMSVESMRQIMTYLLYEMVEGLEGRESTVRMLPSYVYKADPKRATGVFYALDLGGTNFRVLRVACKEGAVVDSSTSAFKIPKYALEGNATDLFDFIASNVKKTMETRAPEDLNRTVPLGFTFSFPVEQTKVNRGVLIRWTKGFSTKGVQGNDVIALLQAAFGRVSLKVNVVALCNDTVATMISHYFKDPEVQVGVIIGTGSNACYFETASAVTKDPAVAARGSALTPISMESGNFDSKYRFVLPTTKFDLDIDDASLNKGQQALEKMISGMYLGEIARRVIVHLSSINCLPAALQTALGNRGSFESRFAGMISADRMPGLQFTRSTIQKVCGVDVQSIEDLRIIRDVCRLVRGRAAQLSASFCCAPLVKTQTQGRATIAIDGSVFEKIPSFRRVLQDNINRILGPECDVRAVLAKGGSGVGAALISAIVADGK
# FAD-linked sulfhydryl oxidase ALR, sequence (P55789 whole entry): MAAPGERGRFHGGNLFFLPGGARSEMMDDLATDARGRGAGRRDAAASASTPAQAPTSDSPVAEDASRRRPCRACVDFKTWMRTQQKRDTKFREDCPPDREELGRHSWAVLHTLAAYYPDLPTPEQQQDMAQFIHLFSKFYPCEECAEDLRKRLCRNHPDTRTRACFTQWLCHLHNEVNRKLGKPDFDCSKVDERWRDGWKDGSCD
smiles,measurement,setting,value
O=C(Cn1sc2ccccc2c1=O)Nc1ccc(C(F)(F)F)cc1,IC50,Hexokinase,> 25 µM (inactive)
Cc1cccc(C(=O)Nc2cc(Cl)ccc2C(=O)O)c1,IC50,Hexokinase,22.3 µM (active)
COc1ccc(N2Cc3cccc(C(=O)N4CCN(C(=O)c5ccco5)CC4)c3C2=O)cc1,IC50,Estrogen receptor,9.8 µM (active)
same,IC50,Estrogen receptor beta [1],5.99 µM (active)
same,IC50,Estrogen receptor beta [2],> 50 µM (not active)
same,IC50,[3],3.1 µM (active)
same,IC50,[4],1.43 µM (active)
same,IC50,[5],10.2 µM (active)
same,IC50,[6],4.24 µM (active)
same,IC50,[7],9.04 µM (active)
CCOC(=O)C1=C(Cc2ccc(F)cc2)C(=O)c2ccccc2C1=O,IC50,Beta-galactosidase,> 66.6 µM (inactive)
same,IC50,Hexokinase HKDC1,11.4 µM (active)
same,AC50,[8],13.4 µM (active)
same,CC50,Vero,> 40 µM (active)
same,IC50,Genome polyprotein,86.4 µM (active)
Cn1c(CSc2nc3ccccc3s2)n[nH]c1=S,IC50,[9],> 100 µM (inactive)
same,IC50,[10],4.35 µM (active)
same,AC50,[11],1.82 µM (active)
Cc1ccc(C2CC(=O)N3CN(c4ccc(Br)cc4)CSC3=C2C#N)o1 (stereo not drawn),IC50,[12],9.58 µM (active)
same,IC50,NS3,7.09 µM (active)
same,IC50,[13],14 µM (active)
O=C(COc1ccc(Cl)cc1)N/N=C/c1cccc2cccnc12,IC50,Beta-galactosidase,> 66.6 µM (inactive)
OC(CNCCc1ccc(C(F)(F)F)cc1)COC(c1ccccc1)c1ccccc1 (stereo not drawn),IC50,[14],2.65 µM (active)
same,CC50,[15],24.5 µM (active)
same,EC50,Melanocortin receptor 4,> 89.2 µM (inactive)
COc1ccc(CCN2C(=O)c3[nH]nc(-c4ccccc4O)c3C2c2cccc(O)c2)cc1OC (stereo not drawn),IC50,[14],2.7 µM (active)
same,AC50,[16],2.44 µM (active)
same,AC50,[17],8.34 µM (active)
same,AC50,[18],17.6 µM (active)
Nn1c(S)nnc1Cc1ccc(Br)cc1,IC50,[19],> 50 µM (not active)
same,IC50,[20],> 50 µM (not active)
same,IC50,[9],> 100 µM (inactive)
same,IC50,[10],3.6 µM (active)
